Results taken from patent US20260284016A1, “COMBINATIONS AND METHODS FOR ENHANCING CHECKPOINT INHIBITOR THERAPIES IN CANCER TREATMENT” (PURDUE RESEARCH FOUNDATION, priority 2004, published 2026).

What was measured:
BM-induced mice [1] = test system: BM-induced mice
Description: Studies were also performed to determine if macrophages in pulmonary fibrotic lungs might be specifically targeted with folate-linked drugs in vivo. […] (The BM model is widely regarded to be helpful in terms of enabling mechanistic investigations relevant to fibrogenesis in an in vivo context.)
More specifically, eight-week-old C57BL6 male mice from Charles River (average weight 22 g to 25 g) were housed under pathogen-free conditions at room temperature (22° C.) under a 12 hours light-dark cycle. Mice were placed on a folate deficient chow (Envigo Teklad Global Rat Food Pellets) for 1 week prior to the BM or PBS instillation. Fresh water and folate-deficient diet were freely available. All animal procedures were approved by the Purdue Animal Care and Use Committee in accordance with National Institute of Health guidelines.
Thereafter, the mice were anesthetized with ketamine/xylazine and the necks of the mice were shaved using hair remover lotion and then sterilized with 70% alcohol. A small incision was made on the neck to visualize the trachea. Mice were positioned at a 75-degree angle and injected intratracheally with 100 μL sterile PBS or BM (Cayman Chemicals, Ann Arbor, MI; #13877) dissolved in PBS (0.75 mg/kg) using a 1 cc syringe with 26 G needle. Body weights were monitored every other day throughout the experiment.
Lobes of the right lung collected above were weighed, placed in a pressure-tight vial (Supelco Inc., Bellefonte, PA; #27003), and hydrolyzed with 6N HCl (10 ml/g, v/w) in a sand bath at 120° C., for 3.5 hours. The hydrolyzed solution was cooled at 4° C., for 15 min and transferred to a 1.5 ml Eppendorf tube prior to centrifugation at 12,000 rcf for 15 min at 4° C. Supernatant was carefully collected, aliquoted and used for hydroxyproline (HYP) analysis.
For the subsequent HYP analysis, 10 μl of sample was transferred into a 96-well plate and neutralized with 10 μl of 5.3 M sodium hydroxide solution. Isopropanol ([…]) was then added to each well followed by 20 μl of oxidation buffer and the mixture was incubated on a shaker at room temperature for 5 min. Analytical reagent (260 μl) was added, and the plate was incubated on a shaker at room temperature for 30 seconds and incubated immediately at 60° C., for 25 min. The absorbance was measured at 560 nm (A560) within 15 min. All reagents were prepared according to a previously reported protocol.
For histological analysis of the lung sections, fixed lungs (see above) were embedded in paraffin, sectioned and stained with hematoxylin-eosin (H&E), Masson's trichrome or F3 (anti-mouse FRβ antibody). Tissue sections were examined in a blinded manner by a licensed pathologist. More than 90×10^6 cells were quantified per section using Aperio-Image Scope (Leica Biosystems, Wetzlar, DE).
For this, BM-treated mice were intravenously injected every other day beginning on day 10 with either vehicle (3% DMSO in PBS) or Compound 1B (see FIG. 8A). […] In BM-induced experimental pulmonary fibrosis in mice, inflammation is known to persist for about 9-10 days after BM installation. Because, inflammation to fibrosis switch happens in this model approximately day 9 to day 14, and anti-inflammatory markers start appearing at about day 10, dosing began on day 10 (FIG. 8A).
Two doses were given every other day till day 21. The individual doses on a day are separated by 6 hours to prevent any “tolerance” to TLR agonists. Mice were then sacrificed on day 21 and subjected immediately to bronchoalveolar lavage followed by resection of the lungs for immunohistochemistry and quantitation of collagen and hydroxyproline.

[2] = test system: M2-induced human monocyte-derived macrophages; test: Reprogramming of M2-induced human monocyte-derived macrophages with FA-glucosamine competition; assay type: cell-based; conditions: 100 nM, 2+46 hours
Description: Arg1 (FIG. 19A), CD206 (FIG. 19B) and CD163 (FIG. 19C), and protein levels of secreted anti-inflammatory CCL18 (FIG. 19D) and proinflammatory cytokines, CXCL10 (FIG. 19E) and IL-6 (FIG. 19F) (n=3, technical replicates) were then determined. Changes in both sets of cytokines were inhibited by blockade of unoccupied folate receptors with excess FA-glucosamine (2+46 hours, competition).

[3] = Stability during incubation in culture media; assay type: physicochemical; conditions: 37° C. in the culture media, 48 hours
Description: Indeed, Compound 1B retained the original structure after 48 hours incubation.

BM-induced mice [4] = test: Bleomycin-induced pulmonary fibrosis, markers in bronchoalveolar lavage cells and fluid; assay type: in vivo, C57BL/6 mice
Description: Fresh water and folate-deficient diet were freely available.
After 2 hours, mice were sacrificed using CO2 asphyxiation and an incision in the skin from the abdomen to neck was immediately made to expose the lungs and trachea. A small cut in the upper trachea was then introduced for insertion of a blunted, 22-gauge needle, and a nylon string was tied around the trachea to seal the trachea around the needle. The trachea (containing the inserted needle), lungs and heart were then removed en masse by carefully cutting the connective tissue beneath the lungs, and the bronchus of left lung was clipped with a Dieffenbach vessel clip. The right lung was injected with PBS and aspirated 3 times using a 1 ml syringe, and the recovered lavage fluid was saved on ice.
Bronchoalveolar lavage fluid (BALF) was then analyzed to determine how the targeted TLR7 agonist works. BALF samples were centrifuged at 1500 rpm for 5 min at 4° C., and the supernatant was aliquoted and stored at −80° C., for cytokine/chemokine analyses. Cell pellets were resuspended and cultured in pre-warmed RPMI 1640 medium for 2 hours and then washed 3x with pre-warmed PBS prior to harvesting for qPCR assay. The right lung was then tied with a nylon string and used for subsequent analysis of hydroxyproline content. The left lung was inflated with 1 ml PBS using the inserted syringe and transferred to 10% formalin solution for subsequent histological analyses.
CCL18 and IL-1β were quantified in induced THP-1 cell supernatants using a human DuoSet ELISA Development System (R&D Systems Europe, Abingdon, UK: #DY394-05) and an IL-1 beta Human ELISA Kit (Thermo Fisher Scientific, Waltham, MA; #BMS224-2) as described by manufactures. BALF samples were analyzed for mouse IFN-γ using ELISA MAX™ Deluxe (Biolegend, San Diego, CA; #430804).

[5] = dosing every other day from day 10, BALF day 21

CCCCc1nc2c(N)nc3ccccc3c2n1CC(C)(C)OC(=O)OCCSSCC(NC(=O)CCC(NC(=O)c1ccc(NCc2cnc3nc(N)[nH]c(=O)c3n2)cc1)C(=O)O)C(=O)O (stereo not drawn) [Compound 1B]
order of efficacy on lung hydroxyproline content (BM-induced mice [1]; 0, 1, 3, or 10 nmol/mouse, day 21): 10 nmol/mouse>3 nmol/mouse>1 nmol/mouse>0 nmol/mouse
lung histology with rising dose (BM-induced mice [1]; 0, 1, 3, or 10 nmoles): lung histology improved
weight loss across doses (BM-induced mice [1]; 0, 1, 3, or 10 nmoles every other day from day 10): no difference in weight loss
response in lung sections (DAPI, anti-F4/80, anti-CD206 staining) (BM-induced mice [1]; healthy and fibrotic lungs): robust anti-fibrotic and proinflammatory response
collagen stain, Masson's trichrome (BM-induced mice [1]; tail vein injection, treatment from day 10): strongly suppressed
lung architecture, H&E staining (BM-induced mice [1]; treatment from day 10): resembles that of healthy mice
downregulation of biomarkers with excess FA-glucosamine (competitor) [2]: blocked
stability during incubation [3]: remained stable
total number of BALF cells (BM-induced mice [4]; different doses of Compound 1B): decreased in a dose-dependent manner
Arg1 (qPCR, lavage macrophages) (BM-induced mice [4]; [5]): suppressed
CD86 transcripts (qPCR) (BM-induced mice [4]; [5]): elevated
IFN-γ concentration (ELISA of lavage fluid) (BM-induced mice [4]; [5]): elevated
IRAK-4 (BM-induced mice [4]; [5]): upregulation
MMP9 (qPCR, lavage macrophages) (BM-induced mice [4]; [5]): suppressed
TIMP 3 (qPCR, lavage macrophages) (BM-induced mice [4]; [5]): suppressed
